Laboratory results taken from US20110160167A1, “Steroid Derivatives Acting As Glucocorticosteroid Receptor Agonists” (AstraZeneca AB, priority 2007, published 2011).

Molecular target: T1, recombinant human GR (Homo sapiens, UniProt P04150)
T1 construct: purchased Panvera/Invitrogen P2812 (kit P2893)
T1 sequence (P04150 1-777): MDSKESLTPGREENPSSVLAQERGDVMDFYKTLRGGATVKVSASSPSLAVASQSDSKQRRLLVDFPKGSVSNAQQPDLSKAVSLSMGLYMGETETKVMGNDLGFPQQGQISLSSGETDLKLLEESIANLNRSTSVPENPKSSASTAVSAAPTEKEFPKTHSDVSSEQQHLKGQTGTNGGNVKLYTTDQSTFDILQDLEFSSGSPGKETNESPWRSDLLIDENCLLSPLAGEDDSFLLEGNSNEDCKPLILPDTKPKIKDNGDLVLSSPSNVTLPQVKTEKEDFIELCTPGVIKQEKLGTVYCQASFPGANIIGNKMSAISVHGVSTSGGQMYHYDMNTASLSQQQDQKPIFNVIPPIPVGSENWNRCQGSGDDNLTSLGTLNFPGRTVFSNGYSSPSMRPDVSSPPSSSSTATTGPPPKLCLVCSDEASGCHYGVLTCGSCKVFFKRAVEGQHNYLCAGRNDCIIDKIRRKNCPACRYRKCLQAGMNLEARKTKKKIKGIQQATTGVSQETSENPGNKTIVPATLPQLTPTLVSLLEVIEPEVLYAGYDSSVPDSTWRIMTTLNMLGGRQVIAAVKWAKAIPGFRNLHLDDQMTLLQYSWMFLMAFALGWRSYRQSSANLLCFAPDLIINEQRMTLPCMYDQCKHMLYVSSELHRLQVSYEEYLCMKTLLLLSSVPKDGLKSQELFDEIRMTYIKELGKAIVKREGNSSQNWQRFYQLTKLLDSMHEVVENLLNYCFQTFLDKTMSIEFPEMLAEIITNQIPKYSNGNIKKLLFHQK
Experiment: Human Glucocorticoid Receptor (GR) Assay (fluorescence polarization, Panvera/Invitrogen kit)
Conditions: GS Red tracer, 2 hours at room temperature, 100% control 10 μM Dexamethasone, read-out: Inhibition of GR binding, IC50
Description: Human Glucocorticoid Receptor (GR) Assay The assay is based on a commercial kit from Panvera/Invitrogen (Part number P2893). The assay technology is fluorescence polarization. The kit utilises recombinant human GR (Panvera, Part number P2812), a Fluoromone™ labelled tracer (GS Red, Panvera, Part number P2894) and a Stabilizing Peptide 10× (Panvera, Part number P2815). The GR and Stabilizing Peptide reagents are stored at −70° C. while the GS Red is stored at −20° C. Also included in the kit are 1M DTT (Panvera, Part number P2325, stored at −20° C.) and GR Screening buffer 10× (Panvera, Part number P2814, stored at −70° C. initially but once thawed stored at room temperature). Avoid repeated freeze/thaws for all reagents. The GR Screening buffer 10× comprises 100 mM potassium phosphate, 200 mM sodium molybdate, 1 mM EDTA and 20% DMSO. Test compounds (1 μL) and controls (1 μL) in 100% DMSO were added to black polystyrene 384-well plates (Greiner low volume black flat-bottom, part number 784076). 0% control was 100% DMSO and 100% control was 10 μM Dexamethasone. Background solution (8 μL; assay buffer 10×, Stabilizing Peptide, DTT and ice cold MQ water) was added to the background wells. GS Red solution (7 μL; assay buffer 10×, Stabilizing Peptide, DTT, GS Red and ice cold water) was added to all wells except background wells. GR solution (7 μL; assay buffer 10×, Stabilizing Peptide, DTT, GR and ice cold water) was added to all wells. The plate was sealed and incubated in a dark at room temperature for 2 hours. The plate was read in an Analyst plate reader (LJL Biosystems/Molecular Devices Corporation) or other similar plate reader capable of recording fluorescence polarization (excitation wavelength 530 nm, emission wavelength 590 nm and a dichroic mirror at 561 nm).

| SMILES | IC50 [nM] |
| --- | --- |
| CCC[C@@H]1O[C@@H]2C[C@H]3[C@@H]4CCC5=Cc6c(cnn6-c6ccc(F)c(CN7CCOCC7)c6)C[C@]5(C)[C@H]4[C@@H](O)C[C@]3(C)[C@]2(C(=O)CO)O1 [Example 1, 1-[(4aR,4bS,5S,6aS,6bS,8R,9aR,10aS,10bS)-1-[4-fluoro-3-(morpholin-4-ylmethyl)phenyl]-5-hydroxy-4a,6a-dimethyl-8-propyl-4,4a,4b,5,6,6a,9a,10,10a,10b,11,12-dodecahydro[1,3]-dioxolo[3′,4′]cyclopenta-[1′,2′:5,6]naphtho[1,2-f]indazol-6b(1H)-yl]-2-hydroxyethanone trifluoroacetic acid] | 8 |
| CCC[C@H]1O[C@@H]2C[C@H]3[C@@H]4CCC5=Cc6c(cnn6-c6ccc(F)c(CN7CCOCC7)c6)C[C@]5(C)[C@H]4[C@@H](O)C[C@]3(C)[C@]2(C(=O)CO)O1 [Example 2] | 8.7 |
| CCC[C@@H]1O[C@@H]2C[C@H]3[C@@H]4CCC5=Cc6c(cnn6-c6ccc(F)c(CN7CCCC7)c6)C[C@]5(C)[C@H]4[C@@H](O)C[C@]3(C)[C@]2(C(=O)CO)O1 [Example 3, 1-[(4aR,4bS,5S,6aS,6bS, 8R,9aR,10aS,10bS)-1-[4-fluoro-3-(pyrrolidin-1-ylmethyl)phenyl]-5-hydroxy-4a,6a-dimethyl-8-propyl-4,4a,4b,5,6,6a,9a,10, 10a,10b,11,12-dodecahydro[1,3]dioxolo [3′,4′]cyclopenta [1′,2′:5,6]naphtho[1,2-f]indazol-6b(1H)-yl]-2-hydroxyethanone] | 37 |
| CCC[C@@H]1O[C@@H]2C[C@H]3[C@@H]4CCC5=Cc6c(cnn6-c6ccc(F)c(CN7CCN(C)CC7)c6)C[C@]5(C)[C@H]4[C@@H](O)C[C@]3(C)[C@]2(C(=O)CO)O1 [Example 4, 1-[(4aR,4bS,5S,6aS,6bS, 8R,9aR,10aS,10bS)-1-{4-fluoro-3-[(4-methylpiperazin-1-yl)methyl]phenyl}-5-hydroxy-4a,6a-dimethyl-8-propyl-4,4a,4b,5,6,6a,9a,10, 10a,10b,11,12-dodecahydro[1,3]dioxolo [3′,4′]cyclopenta [1′,2′:5,6]naphtho[1,2-f]indazol-6b(1H)-yl]-2-hydroxyethanone trifluoroacetic acid] | 21 |
| CCC[C@H]1O[C@@H]2C[C@H]3[C@@H]4CCC5=Cc6c(cnn6-c6ccc(F)c(CN7CCN(C)CC7)c6)C[C@]5(C)[C@H]4[C@@H](O)C[C@]3(C)[C@]2(C(=O)CO)O1 [Example 5, 1-[(4aR,4bS,5S,6aS,6bS, 8S,9aR,10aS,10bS)-1-{4-fluoro-3-[(4-methylpiperazin-1-yl)methyl]phenyl}-5-hydroxy-4a,6a-dimethyl-8-propyl-4,4a,4b,5,6,6a,9a,10, 10a,10b,11,12-dodecahydro[1,3]dioxolo [3′,4′]cyclopenta [1′,2′:5,6]naphtho[1,2-f]indazol-6b(1H)-yl]-2-hydroxyethanone trifluoroacetic acid] | 77 |
| CCC[C@@H]1OC2C[C@H]3[C@@H]4CCC5=Cc6c(cnn6-c6ccc(F)c(CN(CC)CC)c6)C[C@]5(C)[C@H]4[C@@H](O)C[C@]3(C)[C@]2(C(=O)CO)O1 (stereo partly drawn) [Example 6, 1-[(4aR,4bS,5S,6aS,6bS, 8R,9aR,10aS,10bS)-1-{3-[(diethylamino)methyl]-4-fluorophenyl}-5-hydroxy-4a,6a-dimethyl-8-propyl-4,4a,4b,5,6,6a,9a,10, 10a,10b,11,12-dodecahydro[1,3]dioxolo [3′,4′]cyclopenta [1′,2′:5,6]naphtho[1,2-f]indazol-6b(1H)-yl]-2-hydroxyethanone] | 72 |
| CCC[C@@H]1O[C@@H]2C[C@H]3[C@@H]4CCC5=Cc6c(cnn6-c6ccc(F)c(CN7CCSCC7)c6)C[C@]5(C)[C@H]4[C@@H](O)C[C@]3(C)[C@]2(C(=O)CO)O1 [Example 7, 1-[(4aR,4bS,5S,6aS,6bS, 8R,9aR,10aS,10bS)-1-[4-fluoro-3-(thiomorpholin-4-ylmethyl)phenyl]-5-hydroxy-4a,6a-dimethyl-8-propyl-4,4a,4b,5,6,6a,9a,10, 10a,10b,11,12-dodecahydro[1,3]dioxolo [3′,4′]cyclopenta [1′,2′:5,6]naphtho[1,2-f]indazol-6b(1H)-yl]-2-hydroxyethanone trifluoroacetic acid] | 12 |
| CCC[C@H]1O[C@@H]2C[C@H]3[C@@H]4CCC5=Cc6c(cnn6-c6ccc(F)c(CN7CCSCC7)c6)C[C@]5(C)[C@H]4[C@@H](O)C[C@]3(C)[C@]2(C(=O)CO)O1 [Example 8, 1-[(4aR,4bS,5S,6aS,6bS, 8S,9aR,10aS,10bS)-1-[4-fluoro-3-(thiomorpholin-4-ylmethyl)phenyl]-5-hydroxy-4a,6a-dimethyl-8-propyl-4,4a,4b,5,6,6a,9a,10, 10a,10b,11,12-dodecahydro[1,3]dioxolo [3′,4′]cyclopenta [1′,2′:5,6]naphtho[1,2-f]indazol-6b(1H)-yl]-2-hydroxyethanone trifluoroacetic acid] | 16 |
| CCC[C@@H]1O[C@@H]2C[C@H]3[C@@H]4CCC5=Cc6c(cnn6-c6ccc(F)c(CN7CCC(O)CC7)c6)C[C@]5(C)[C@H]4[C@@H](O)C[C@]3(C)[C@]2(C(=O)CO)O1 [Example 9, 1-[(4aR,4bS,5S,6aS,6bS, 8R,9aR,10aS,10bS)-1-{4-fluoro-3-[(4-hydroxypiperidin-1-yl)methyl]phenyl}-5-hydroxy-4a,6a-dimethyl-8-propyl-4,4a,4b,5,6,6a,9a,10, 10a,10b,11,12-dodecahydro[1,3]dioxolo [3′,4′]cyclopenta [1′,2′:5,6]naphtho[1,2-f]indazol-6b(1H)-yl]-2-hydroxyethanone trifluoroacetic acid] | 21 |
| CCC[C@H]1O[C@@H]2C[C@H]3[C@@H]4CCC5=Cc6c(cnn6-c6ccc(F)c(CN7CCC(O)CC7)c6)C[C@]5(C)[C@H]4[C@@H](O)C[C@]3(C)[C@]2(C(=O)CO)O1 [Example 10, 1-[(4aR,4bS,5S,6aS,6bS, 8S,9aR,10aS,10bS)-1-{4-fluoro-3-[(4-hydroxypiperidin-1-yl)methyl]phenyl}-5-hydroxy-4a,6a-dimethyl-8-propyl-4,4a,4b,5,6,6a,9a,10, 10a,10b,11,12-dodecahydro[1,3]dioxolo [3′,4′]cyclopenta [1′,2′:5,6]naphtho[1,2-f]indazol-6b(1H)-yl]-2-hydroxyethanone trifluoroacetic acid] | 67 |
| CCC[C@@H]1O[C@@H]2C[C@H]3[C@@H]4CCC5=Cc6c(cnn6-c6ccc(F)c(CNCCCO)c6)C[C@]5(C)[C@H]4[C@@H](O)C[C@]3(C)[C@]2(C(=O)CO)O1 [Example 11, 1-[(4aR,4bS,5S,6aS,6bS, 8R,9aR,10aS,10bS)-1-(4-fluoro-3-{[(3-hydroxypropyl)amino]methyl}phenyl)-5-hydroxy-4a,6a-dimethyl-8-propyl-4,4a,4b,5,6,6a,9a,10, 10a,10b,11,12-dodecahydro[1,3]dioxolo [3′,4′]cyclopenta [1′,2′:5,6]naphtho[1,2-f]indazol-6b(1H)-yl]-2-hydroxyethanone trifluoroacetic acid] | 34 |
| CCC[C@H]1O[C@@H]2C[C@H]3[C@@H]4CCC5=Cc6c(cnn6-c6ccc(F)c(CNCCCO)c6)C[C@]5(C)[C@H]4[C@@H](O)C[C@]3(C)[C@]2(C(=O)CO)O1 [Example 12, 1-[(4aR,4bS,5S,6aS,6bS, 8S,9aR,10aS,10bS)-1-(4-fluoro-3-{[(3-hydroxypropyl)amino]methyl}phenyl)-5-hydroxy-4a,6a-dimethyl-8-propyl-4,4a,4b,5,6,6a,9a,10, 10a,10b,11,12-dodecahydro[1,3]dioxolo [3′,4′]cyclopenta [1′,2′:5,6]naphtho[1,2-f]indazol-6b(1H)-yl]-2-hydroxyethanone trifluoroacetic acid] | 76 |
